Test results: US12139498B1, “Positive allosteric modulators of the muscarinic acetylcholine receptor M4” (Vanderbilt University, priority 2023, dated 2024)

Biological target: T1, Human M4 (Homo sapiens, UniProt P08173)
T1 sequence (P08173 1-479): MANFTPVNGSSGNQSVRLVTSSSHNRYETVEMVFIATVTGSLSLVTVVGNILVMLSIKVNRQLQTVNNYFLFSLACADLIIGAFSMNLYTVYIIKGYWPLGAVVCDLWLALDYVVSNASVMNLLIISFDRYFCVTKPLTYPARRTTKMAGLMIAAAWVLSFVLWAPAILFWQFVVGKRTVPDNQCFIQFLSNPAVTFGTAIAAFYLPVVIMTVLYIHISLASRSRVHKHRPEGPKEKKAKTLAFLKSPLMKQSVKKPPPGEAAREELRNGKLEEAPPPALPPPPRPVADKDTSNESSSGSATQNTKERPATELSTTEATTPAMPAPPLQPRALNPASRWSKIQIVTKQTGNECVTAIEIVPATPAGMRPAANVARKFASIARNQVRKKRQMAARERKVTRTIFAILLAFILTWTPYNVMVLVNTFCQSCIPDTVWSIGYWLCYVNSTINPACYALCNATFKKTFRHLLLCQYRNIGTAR
Assay: M4 cell-based functional assay (calcium mobilization)
Parameters: expressed in transfected cells
Conditions: for Emax at 30 µM: % ACh maximum at 30 μM; for EC50: CHO-K1 hM4-Gqi5 cells, calcium flux, increase in EC20 acetylcholine response
Description: Human (h) and rat (r) M4 CDNAs, along with the chimeric G protein Gqi5, were transfected into Chinese hamster ovary (CHO-K1) cells purchased from the American Type Culture Collection using Lipofectamine2000. The transfected cells were subjected to selection antibiotic treatment to generate stable cell lines; G418 sulfate (1 mg/ml) for selecting M4 expressing cells and Hygromycin B (500 μg/mL) for selecting Gqi5 expressing cells. The resulting polyclones were further screened to obtain monoclones of hM4-Gqi5 and rM4-Gqi5 for compound screening assay. Stable monoclone cells were maintained in Ham's F-12 medium containing 10% heat-inactivated fetal bovine serum (FBS), 1× Antibiotic/Antimycotic, 20 mM HEPES, 500 μg/mL G418 sulfate, and 200 μg/mL Hygromycin B in 37° C. humidified incubators in the presence of 5% CO2.
The high throughput assay was employed to measure receptor-induced mobilization of intracellular calcium to determine compound activity. Test compound was added to cells expressing the muscarinic receptors that were loaded with calcium sensitive fluorescent dye. After a ˜2.5 minute incubation period, a submaximal (EC20) concentration of acetylcholine was added, and the response measured. This kinetic assay allows for simultaneous screening and potency determination of multiple pharmacological modes of action including agonist and potentiator activity. CHO-K1 cells stably expressing muscarinic receptors were plated in growth medium lacking G418 and hygromycin at 15,000 cells/20 μL/well in Greiner 384-well black-walled, tissue culture (TC)-treated, clear-bottom plates (Greiner Bio-One). Cells were incubated overnight at 37° C. and 5% CO2. The next day, calcium assay buffer (Hank's balanced salt solution (HBSS), 20 mM HEPES, 2.5 mM Probenecid, 4.16 mM sodium bicarbonate (Sigma-Aldrich, St. Louis, MO)) was prepared to dilute compounds, agonists, and Fluo-4-acetomethoxyester (Fluo-4-AM), fluorescent calcium indicator dye. Compounds were serially diluted 1:3 into 10 point concentration response curves in DMSO using the Bravo Liquid Handler (Agilent, Santa Clara, CA), transferred to a 384 well daughter plates using an Echo acoustic liquid handler (Beckman Coulter, Indianapolis, Indiana), and diluted in assay Buffer to a 2× final concentration. The agonist plates were prepared using acetylcholine (ACh, Sigma-Aldrich, St. Louis, MO) concentrations for the EC20 and ECMAX responses by diluting in assay buffer to a 5× final concentration. The 2× dye solution (2.3 μM) was prepared by mixing a 2.3 mM Fluo-4-AM stock in DMSO with 10% (w/v) pluronic acid F-127 in a 1:1 ratio in assay buffer. Using a microplate washer (BioTek, Winooski, VT), cells were washed with assay buffer for 3 times to remove medium. After the final wash, 20 μL of assay buffer remained in the cell plates. Immediately, 20 μL of the 2× dye solution (final 1.15 μM) was added to each well of the cell plate using a Multidrop Combi dispenser (Thermo Fisher, Waltham, MA). After cells were incubated with the dye solutions for 45 min at 37° C. in the presence of 5% CO2, the dye solutions were removed and replaced with assay buffer using a microplate washer, leaving 20 μL of assay buffer in the cell plate.
The prepared compound, agonist, and cell plates were placed inside the Functional Drug Screening System uCell (FDSS uCell, Hamamatsu, Japan) to measure the calcium flux.
The triple add protocol was used to measure Ca kinetics; Compound, ACh for EC2O, and ACh for EC80 adds in an order. Briefly, after establishment of a fluorescence baseline for 2 seconds (excitation, 480 nm; emission, 530 nm), first add occurred by adding 20 μL of test compound to the cells, and the response was measured for 140 seconds. This is followed by second add; 10 μL (5×) of an EC20 concentration of ACh agonist was added to the cells, and the response of the cells was measured for 125 seconds. […]

Emax at 30 µM [%] | EC50 [nM] | SMILES
76 | 119 | Cc1cc2nccnc2nc1N1CCc2nc(C(C)C)sc2C1 [Compound 64, 2-isopropyl-5-(7-methylpyrido[2,3-b]pyrazin-6-yl)-4,5,6,7-tetrahydrothiazolo[5,4-c]pyridine]
57 | 1890 | Cc1cc2nccnc2nc1N1CCc2nc(C(C)(C)C)sc2C1 [Compound 65, 2-(tert-butyl)-5-(7-methylpyrido[2,3-b]pyrazin-6-yl)-4,5,6,7-tetrahydrothiazolo[5,4-c]pyridine]
76 | 13 | Cc1cn2c(=O)[nH]nc2nc1N1CCc2nc(C3CCC3)sc2C1 [Compound 66, 7-(2-cyclobutyl-6,7-dihydrothiazolo[5,4-c]pyridin-5(4H)-yl)-6-methyl-[1,2,4]triazolo[4,3-a]pyrimidin-3(2H)-one]
71 | 4 | Cc1cn2c(=O)n(C)nc2nc1N1CCc2nc(C3CCC3)sc2C1 [Compound 67, 7-(2-cyclobutyl-6,7-dihydrothiazolo[5,4-c]pyridin-5(4H)-yl)-2,6-dimethyl-[1,2,4]triazolo[4,3-a]pyrimidin-3(2H)-one]
97 | 40 | Cc1c(N2CCc3nc(C4(C)CC4)sc3C2)nc2n[nH]c(=O)n2c1C [Compound 68, 5,6-dimethyl-7-(2-(1-methylcyclopropyl)-6,7-dihydrothiazolo[5,4-c]pyridin-5(4H)-yl)-[1,2,4]triazolo[4,3-a]pyrimidin-3(2H)-one]
88 | 18 | Cc1c(N2CCc3nc(C4(F)CC4)sc3C2)nc2n[nH]c(=O)n2c1C [Compound 69, 7-(2-(1-fluorocyclopropyl)-6,7-dihydrothiazolo[5,4-c]pyridin-5(4H)-yl)-5,6-dimethyl-[1,2,4]triazolo[4,3-a]pyrimidin-3(2H)-one]
91 | 5 | Cc1c(N2CCc3nc(C4CC4)sc3C2)nc2n[nH]c(=O)n2c1C [Compound 72, 7-(2-cyclopropyl-6,7-dihydrothiazolo[5,4-c]pyridin-5(4H)-yl)-5,6-dimethyl-[1,2,4]triazolo[4,3-a]pyrimidin-3(2H)-one]

The remaining lines, values behind:

SMILES | Emax at 30 µM [%] | EC50 [nM]
Cc1cc2nc(=O)cc(C(F)(F)F)n2nc1N1CCc2nc(Br)sc2C1 [Compound 49, 7-(2-bromo-6,7-dihydrothiazolo[5,4-c]pyridin-5(4H)-yl)-8-methyl-4-(trifluoromethyl)-2H-pyrimido[1,2-b]pyridazin-2-one] | 76 | 386
Cc1cc2nc(=O)ccn2nc1N1CCc2nc(Br)sc2C1 [Compound 50, 7-(2-bromo-6,7-dihydrothiazolo[5,4-c]pyridin-5(4H)-yl)-8-methyl-2H-pyrimido[1,2-b]pyridazin-2-one] | 66 | 521
Cc1cc2nc(=O)cc(C)n2nc1N1CCc2nc(Br)sc2C1 [Compound 51, 7-(2-bromo-6,7-dihydrothiazolo[5,4-c]pyridin-5(4H)-yl)-4,8-dimethyl-2H-pyrimido[1,2-b]pyridazin-2-one] | 71 | 378
CCOC(=O)c1cc(=O)n2nc(N3CCc4nc(Br)sc4C3)c(C)cc2n1 [Compound 52, ethyl 7-(2-bromo-6,7-dihydrothiazolo[5,4-c]pyridin-5(4H)-yl)-8-methyl-4-oxo-4H-pyrimido[1,2-b]pyridazine-2-carboxylate] | 92 | 868
Cc1cc2nccnc2nc1N1CCc2ncsc2C1 [Compound 53, 5-(7-methylpyrido[2,3-b]pyrazin-6-yl)-4,5,6,7-tetrahydrothiazolo[5,4-c]pyridine] | 82 | 2790
Cc1cc2nccnc2nc1N1CCc2nc(C3CC3)sc2C1 [Compound 54, 2-cyclopropyl-5-(7-methylpyrido[2,3-b]pyrazin-6-yl)-4,5,6,7-tetrahydrothiazolo[5,4-c]pyridine] | 82 | 32
Cc1cc2nccnc2nc1N1CCc2nc(C3(C)CC3)sc2C1 [Compound 55, 2-(1-methylcyclopropyl)-5-(7-methylpyrido[2,3-b]pyrazin-6-yl)-4,5,6,7-tetrahydrothiazolo[5,4-c]pyridine] | 76 | 253
Cc1cc2nccnc2nc1N1CCc2nc(-c3cccs3)sc2C1 [Compound 56, 5-(7-methylpyrido[2,3-b]pyrazin-6-yl)-2-(thiophen-2-yl)-4,5,6,7-tetrahydrothiazolo[5,4-c]pyridine] | 50 | 2390
Cc1nc2c(s1)CN(c1nc3nccnc3cc1C)CC2 [Compound 57, 2-methyl-5-(7-methylpyrido[2,3-b]pyrazin-6-yl)-4,5,6,7-tetrahydrothiazolo[5,4-c]pyridine] | 90 | 666
CCOC(=O)c1nc2c(s1)CN(c1nc3nccnc3cc1C)CC2 [Compound 58, ethyl 5-(7-methylpyrido[2,3-b]pyrazin-6-yl)-4,5,6,7-tetrahydrothiazolo[5,4-c]pyridine-2-carboxylate] | 86 | 1840
Cc1cc2nccnc2nc1N1CCc2nc(-c3ccnn3C)sc2C1 [Compound 59, 2-(1-methyl-1H-pyrazol-5-yl)-5-(7-methylpyrido[2,3-b]pyrazin-6-yl)-4,5,6,7-tetrahydrothiazolo[5,4-c]pyridine] | 54 | 2780
Cc1cc2nccnc2nc1N1CCc2nc(N)sc2C1 [Compound 60, 5-(7-methylpyrido[2,3-b]pyrazin-6-yl)-4,5,6,7-tetrahydrothiazolo[5,4-c]pyridin-2-amine] | 67 | > 10000
Cc1cc2nccnc2nc1N1CCc2nc(Cl)sc2C1 [Compound 61, 2-chloro-5-(7-methylpyrido[2,3-b]pyrazin-6-yl)-4,5,6,7-tetrahydrothiazolo[5,4-c]pyridine] | 68 | 414
Cc1cc2nccnc2nc1N1CCc2nc(C(F)(F)F)sc2C1 [Compound 62, 5-(7-methylpyrido[2,3-b]pyrazin-6-yl)-2-(trifluoromethyl)-4,5,6,7-tetrahydrothiazolo[5,4-c]pyridine] | 72 | 93
Cc1cc2nccnc2nc1N1CCc2nc(C3CC3(C)C)sc2C1 (stereo not shown) [Compound 63, 2-(2,2-dimethylcyclopropyl)-5-(7-methylpyrido[2,3-b]pyrazin-6-yl)-4,5,6,7-tetrahydrothiazolo[5,4-c]pyridine] | 63 | 738
[2H]C([2H])([2H])n1nc2nc(N3CCc4nc(C5(F)CC5)sc4C3)c(C)c(C)n2c1=O [Compound 71, 7-(2-(1-fluorocyclopropyl)-6,7-dihydrothiazolo[5,4-c]pyridin-5(4H)-yl)-5,6-dimethyl-2-(methyl-d3)-[1,2,4]triazolo[4,3-a]pyrimidin-3(2H)-one] | 83 | 7
